# Columns and labels:
# [1] = pKa value by 1H NMR titration experiments; pK1; format: physicochemical
# [2] = pKa value by 1H NMR titration experiments; pK2; format: physicochemical
# [3] = pKa value by 1H NMR titration experiments; pK3; format: physicochemical
# Rattus norvegicus [4] = species: Rattus norvegicus; experiment: Depolarizing potency in new born rat spinal cord; format: functional
# Rattus norvegicus [5] = species: Rattus norvegicus; experiment: Compound was tested for the inhibition of spinal reflex evoked by electrical stimulation of the dorsal root of new born rat
# [6] = Compound was tested for the Inhibition of forskolin-stimulated cAMP formation in the cultured spinal neurons; settings: Rattus norvegicus
SMILES,pKa [1],pKa [2],pKa [3],IC50 [6] [nM],Relative potency (Rattus norvegicus [4]),IC50 (Rattus norvegicus [5]) [nM]
N[C@H](C(=O)O)[C@H]1C[C@@H]1C(=O)O,1.9,4.2,9.7,100,6,700
N[C@H](C(=O)O)[C@@H]1C[C@@H]1C(=O)O,2.5,4.6,10,–,100,–
N[C@H](C(=O)O)[C@H]1C[C@H]1C(=O)O,2.1,4.3,10,–,–,–
N[C@H](C(=O)O)[C@@H]1C[C@H]1C(=O)O,2.2,4.2,9.5,–,–,–
"Cc1onc(O)c1CC(N)C(=O)O [(R,S)-AMPA]",2.1,5.2,10.1,–,–,–
N[C@@H](CCC(=O)O)C(=O)O [GLUTAMIC ACID],–,–,9.7,–,1,–
C=C(C)[C@H]1CN[C@H](C(=O)O)[C@H]1CC(=O)O [KAINIC ACID],2.1,4.3,10.1,–,100,–

# Further lines, with some results ahead:
pKa [1],pKa [2],pKa [3],IC50 [6] [nM],SMILES,Relative potency (Rattus norvegicus [4]),IC50 (Rattus norvegicus [5]) [nM]
2.3,4.2,10.2,–,COC[C@H]1[C@H](C(=O)O)[C@H]1[C@H](N)C(=O)O,0.1,–
2.1,4,9.7,–,COC[C@@H]1[C@H](C(=O)O)[C@H]1[C@H](N)C(=O)O,0.1,–
2,5.1,10.1,–,COC[C@@H]1[C@H](C(=O)O)[C@@H]1[C@H](N)C(=O)O,25,–
2.2,4.7,9.6,–,COC[C@H]1[C@H](C(=O)O)[C@@H]1[C@H](N)C(=O)O,50,–

# — ChEMBL document CHEMBL1129658, “Syntheses and conformational analyses of glutamate analogs: 2-(2-carboxy-3-substituted-cyclopropyl)glycines as useful probes for excitatory amino acid receptors” (J Med Chem, 1996)
